Entries after “also recorded” stand apart in the source; their conditions may differ.
What was measured:
ID8-Defb29/Vegfa tumors = experiment: Orthotopic ID8-Defb29/Vegfa ovarian tumor model treated with MKC8866; assay type: in vivo, mice
Source text: (§1) FIGS. 19A, 19B, 19C, 19D, 19E, and 19F show Inhibition of IRE1α-XBP1 blunts tumor growth and activates effector T cell activity in tumors. […] Pictures denote the content of hemorrhagic ascites. […] FIGS. 19D, 19E, and 19F show the frequency of T cell populations in peritoneal tumors from ID8-Defb29/Vegfa-bearing mice treated with MKC8866 for two weeks. ***P<0.0001, **P<0.001 (Student's t-test). N=two repeats with a total of 8-10 mice per group.
(§2) We optimized a therapeutic scheme wherein female mice bearing orthotropic ID8-Defb29/Vegfa tumors for 7 days were treated daily for two weeks with vehicle or MKC8866, a novel small-molecule inhibitor that selectively blocks the RNase domain of IRE1α, impeding the generation of XBP1s.

[1] = system: IRE1α-generated Xbp1s mRNA; experiment: Xbp1s mRNA in peritoneal leukocytes of ID8-Defb29/Vegfa-bearing mice; assay type: in vivo; details: MKC8866 300 mg/kg; leukocytes isolated 12 h later
Source text: as §1, §2

human FSH-CER T cells = experiment: Expansion of IL-2-supplemented human FSH-CER T cells with ER stress inhibitors; assay type: cell-based; details: treatment for 5 days
Experimental: The role of the PERK-Chop in the expansion of tumor TRM cells using conditional T cell Chop-null mice was evaluated. In agreement with the inhibitory effect of Chop in TRM development, higher frequency of TRM cells was detected in tumors from T cell-Chop^KO mice compared to controls (FIG. 23A). Next, we tested the effect of the inhibition of PERK (AMG-44) and IRE 1α (MKC8866) during the expansion of IL-2-supplemented human FSH-CER T cells. […] Also, we evaluated the therapeutic effect of the combination of ER stress-targeting therapy and FSH-CER. Thus, mice bearing FSHR+-ID8-Defb29/Vegfa ovarian tumors for 7 days received daily treatments with MKC8866 (i.p., 300 mg/kg) or AMG-44 (i.p. 12 mg/kg) for one-week, and i.p. transfer of FSH-CER T cells at days 7 and 14 post-tumor challenge. […] We postulate that treatments for longer time periods with ER stress inhibitors will further potentiate the effect of FSH-CER T cells

[2] = system: FSHR+-ID8-Defb29/Vegfa ovarian tumors; experiment: ER stress-targeting therapy combined with FSH-CER T cells in ovarian tumor-bearing mice; assay type: in vivo; details: MKC8866 i.p. 300 mg/kg or AMG-44 i.p. 12 mg/kg daily for one week; FSH-CER T cells days 7 and 14
Experimental: The role of the PERK-Chop in the expansion of tumor TRM cells using conditional T cell Chop-null mice was evaluated. In agreement with the inhibitory effect of Chop in TRM development, higher frequency of TRM cells was detected in tumors from T cell-Chop^KO mice compared to controls (FIG. 23A). Next, we tested the effect of the inhibition of PERK (AMG-44) and IRE 1α (MKC8866) during the expansion of IL-2-supplemented human FSH-CER T cells. […] Also, we evaluated the therapeutic effect of the combination of ER stress-targeting therapy and FSH-CER. […]
Activation of the UPR in cancer cells mediates adaptation processes in the TME, whereas UPR priming in tumor-myeloid cells promotes their immunoregulatory activity. […] As main readouts of therapeutic efficacy, we will monitor tumor burden, overall survival, and tumor CER-T cell infiltration, persistence, and cytotoxic capacity (Exp. C.2.1.1). […] Additionally, we will sort DCs and MDSC from tumor sites and lymphoid organs to quantify the expression of ER stress gene markers, their ability to impair T cell proliferation and IFNγ production, and the levels of the UPR-related immunoinhibitory factors IL-6, PGE2, Cox-2, mPGES-1, and Arginase I. All required methods are established by our groups. […]

For `COc1cc2c(C)c(CC(=O)N3CCOCC3)c(=O)oc2c(C=O)c1O` [MKC8866], the “PD-1 in intra-tumoral CD8+ T cells” value (ID8-Defb29/Vegfa tumors; MKC8866-treated mice vs vehicle) was “upregulation of PD-1; also recorded: substantial elevation of the immune checkpoint PD-1”, the “generation of hemorrhagic ascites” value (ID8-Defb29/Vegfa tumors; MKC8866 daily for two weeks vs vehicle) was “impaired generation of hemorrhagic ascites” and the malignant progression (ID8-Defb29/Vegfa tumors; MKC8866 daily for two weeks vs vehicle, weight gain) was “delayed malignant progression”. The “capacity of intra-tumoral CD8+ T cells to produce IFNγ and TNFα in situ” value (ID8-Defb29/Vegfa tumors; MKC8866 for two weeks) was “augmenting their capacity to produce both IFNγ and TNFα in situ”, the “proportion of proliferating (Ki67+) antigen-experienced (CD44+) CD8+ T cells infiltrating tumors” value (ID8-Defb29/Vegfa tumors; MKC8866 for two weeks) was “increased the proportion” and the “levels of IRE1α-generated Xbp1s mRNA in peritoneal leukocytes” value [1] was “rapidly and significantly decreased”. For the same compound, the “frequency of FSH-CER TRM cells” value (human FSH-CER T cells) was “Higher frequency of FSH-CER TRM cells” and the “survival of hosts receiving FSH-CER T cells plus inhibitor” value [2] was “Prolonged survival”.
